“Also recorded” adds a separate entry of the source.
Tested on: HEK293 cells
Assay: Detection of the phosphate of the compound in cultured cells, LC-MS/MS
Assay type: in vitro ADME
Details: 1 µM, 2 h
Description: LC-MS/MS was performed on a TSQ Quantum Access triple quadrupole mass spectrometer in positive ion mode, coupled to an Accela UPLC system (Thermo Scientific). Extracts (20 μL) were separated on a 2 × 100 mm Eclipse XDB-C8 column with 1.8 μm particle size (Agilent Technologies), using a 7.5 min binary HPLC gradient: 0 min, 70% B ([…]); 1.5 min, 70% B; 3.5 min, 95% B; 4 min, 95% B; 4.5 min, 70% B; 7.5 min 70% B. Mobile phase A: 2 mM ammonium formate/1% formic acid in water; mobile phase B: 1 mM ammonium formate/1% formic acid in methanol. The flow rate was 0.4 mL min^−1, increasing to 0.5 mL min^−1 from 5–7 min, and column oven 30 °C. […] Visualisation and quantification of peaks was performed using Thermo Fisher’s XCalibur software v2.2.
Supplementary Figure 8. P053 is not phosphorylated in situ or in vivo. (a-b) HEK293 cells […]
LC-MS/MS analysis. Chromatograms for (a) FTY720 and its phosphate, and (b) P053 and its putative phosphate are shown. […]
mg/kg/day for 6 weeks, corresponding to a plasma concentration of ~300 nM. No peak is […]
(1 picture or pasted object on this page, not shown here)

Q: With CCCCCCCCc1ccc(CCC(N)(CO)CO)cc1 [FTY720, reference compound] as the molecule, how does the “phosphate of the compound in cultured HEK293 cells” value read?
A: definitive peak; also recorded: clearly detected

Source: PMC6104039 (Nature Communications, 2018)
